Measurements published in PubChem BioAssay (NCI).
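Grown in 96-well plates, cells were treated for 48 hours with each compound at five concentrations. Insufficient inhibition: endpoint recorded as highest concentration tested. TGI denotes the concentration required for complete inhibition of growth.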

How the values were obtained:
Experiment in all cases: growth of human tumour cells (NCI), 48 h
ACHN renal = test system: ACHN renal
MCF7 breast = test system: MCF7 breast
SW-620 colon = test system: SW-620 colon
MDA-MB-231 breast = test system: MDA-MB-231 breast
M14 melanoma = test system: M14 melanoma
SR leukemia = test system: SR leukemia
SNB-75 CNS = test system: SNB-75 CNS
RXF 393 renal = test system: RXF 393 renal
T-47D breast = test system: T-47D breast
SF-539 CNS = test system: SF-539 CNS
HS 578T breast = test system: HS 578T breast
UACC-62 melanoma = test system: UACC-62 melanoma
HL-60(TB) leukemia = test system: HL-60(TB) leukemia

## COC1=C(Cl)C(=O)c2c(O)ccc(O)c2C1=O
ACHN renal
  TGI: 2.31 µM
MCF7 breast
  TGI: 3.29 µM
SW-620 colon
  TGI: 0.46 µM
MDA-MB-231 breast
  TGI: 3.19 µM
M14 melanoma
  TGI: 1.28 µM
SR leukemia
  TGI: 1.3 µM
SNB-75 CNS
  TGI: 17.1 µM
RXF 393 renal
  TGI: 2.69 µM
T-47D breast
  TGI: 3.61 µM
SF-539 CNS
  TGI: 1.53 µM
HS 578T breast
  TGI: 4.96 µM
UACC-62 melanoma
  TGI: 4.12 µM

## CN(C)CCOc1ccc(-c2c(Oc3ccccc3)c(=O)oc3ccccc23)cc1
ACHN renal
  TGI: 24.4 µM
MCF7 breast
  TGI: 17.5 µM
SW-620 colon
  TGI: 23.8 µM
MDA-MB-231 breast
  TGI: 18.8 µM
M14 melanoma
  TGI: 4.63 µM
SR leukemia
  TGI: 19.4 µM
SNB-75 CNS
  TGI: 23.6 µM
RXF 393 renal
  TGI: 17.6 µM
T-47D breast
  TGI: 44.1 µM
SF-539 CNS
  TGI: 27.9 µM
HS 578T breast
  TGI: 35.2 µM
UACC-62 melanoma
  TGI: 27.2 µM

## CO/N=C(\C([O-])=N\[n+]1cnn(CC(=O)OC(C)(C)C)c1)c1csc(NC(c2ccccc2)(c2ccccc2)c2ccccc2)n1
HL-60(TB) leukemia
  TGI: > 10 µM
ACHN renal
  TGI: > 10 µM
MCF7 breast
  TGI: > 10 µM
SW-620 colon
  TGI: > 10 µM
M14 melanoma
  TGI: > 10 µM
SR leukemia
  TGI: > 10 µM
SNB-75 CNS
  TGI: > 10 µM
RXF 393 renal
  TGI: > 10 µM
T-47D breast
  TGI: > 10 µM
SF-539 CNS
  TGI: > 10 µM
HS 578T breast
  TGI: > 10 µM

## Cc1cc(Nc2ccc(NS(C)(=O)=O)cc2)c2c(ccc3nccc32)[nH]1
ACHN renal
  TGI: 60.8 µM
MCF7 breast
  TGI: 36.2 µM
SW-620 colon
  TGI: > 100 µM
MDA-MB-231 breast
  TGI: 33.4 µM
M14 melanoma
  TGI: 31.1 µM
T-47D breast
  TGI: 19.5 µM
HS 578T breast
  TGI: > 100 µM
UACC-62 melanoma
  TGI: 30.7 µM

## COC(=O)c1ccccc1/C=C1\Cc2ccc3c(c2C1=O)CCCC3
ACHN renal
  TGI: > 100 µM
MCF7 breast
  TGI: > 100 µM
SW-620 colon
  TGI: > 100 µM
MDA-MB-231 breast
  TGI: > 100 µM
M14 melanoma
  TGI: > 100 µM
SR leukemia
  TGI: > 100 µM
SNB-75 CNS
  TGI: > 100 µM
T-47D breast
  TGI: > 100 µM
SF-539 CNS
  TGI: > 100 µM
HS 578T breast
  TGI: > 100 µM
UACC-62 melanoma
  TGI: > 100 µM

## C=CCN1/C(=C2\SC(=S)N(c3ccc(C)cc3)C2=O)Sc2c1ncn(C)c2=O
HL-60(TB) leukemia
  TGI: > 100 µM
ACHN renal
  TGI: > 100 µM
SW-620 colon
  TGI: > 100 µM
M14 melanoma
  TGI: > 100 µM
SR leukemia
  TGI: > 100 µM
SNB-75 CNS
  TGI: > 100 µM
SF-539 CNS
  TGI: > 100 µM
UACC-62 melanoma
  TGI: > 100 µM

## CCN(CC)CC1CN=C(N)O1 (centres undefined)
ACHN renal
  TGI: > 100 µM
MCF7 breast
  TGI: > 100 µM
SW-620 colon
  TGI: > 100 µM
MDA-MB-231 breast
  TGI: > 100 µM
M14 melanoma
  TGI: > 100 µM
SR leukemia
  TGI: > 100 µM
SNB-75 CNS
  TGI: > 100 µM
RXF 393 renal
  TGI: > 100 µM
T-47D breast
  TGI: > 100 µM
SF-539 CNS
  TGI: > 100 µM
UACC-62 melanoma
  TGI: > 100 µM

## CC(=O)O[C@H]1C[C@@H](OC(C)=O)[C@@](C)(O)[C@@H]2[C@@H](OC(C)=O)[C@@]3(O)[C@H](/C=C(/CO)[C@H]4O[C@H]4[C@@H](OC(C)=O)[C@@]12C)OC(=O)[C@@H]3C
ACHN renal
  TGI: > 25 µM
SW-620 colon
  TGI: > 25 µM
MDA-MB-231 breast
  TGI: > 25 µM
M14 melanoma
  TGI: > 25 µM
SNB-75 CNS
  TGI: 17.5 µM
RXF 393 renal
  TGI: 10.7 µM
T-47D breast
  TGI: > 25 µM
HS 578T breast
  TGI: > 25 µM
UACC-62 melanoma
  TGI: > 25 µM

## Cc1cc(S(=O)(=O)Nc2nncn2-c2ccc(Cl)cc2)c(S)cc1Cl
HL-60(TB) leukemia
  TGI: > 10 µM
ACHN renal
  TGI: > 10 µM
MCF7 breast
  TGI: > 10 µM
SW-620 colon
  TGI: > 10 µM
MDA-MB-231 breast
  TGI: > 10 µM
M14 melanoma
  TGI: > 10 µM
SNB-75 CNS
  TGI: > 10 µM
RXF 393 renal
  TGI: > 10 µM
T-47D breast
  TGI: > 10 µM
SF-539 CNS
  TGI: > 10 µM
HS 578T breast
  TGI: > 10 µM
UACC-62 melanoma
  TGI: > 10 µM

## Cc1c(Cl)cccc1N=NC(=O)NNc1cccc(Cl)c1C
HL-60(TB) leukemia
  TGI: 38.1 µM
ACHN renal
  TGI: 45.3 µM
SW-620 colon
  TGI: 30.8 µM
MDA-MB-231 breast
  TGI: 37.1 µM
M14 melanoma
  TGI: 35.7 µM
SR leukemia
  TGI: 95 µM
SNB-75 CNS
  TGI: 32.5 µM
T-47D breast
  TGI: 24.2 µM
UACC-62 melanoma
  TGI: 25.5 µM

## O=C(CN1CCCCC1)Nc1ccc2c(c1)C1Oc3ccccc3CC1CO2 (centres undefined)
HL-60(TB) leukemia
  TGI: > 100 µM
MCF7 breast
  TGI: 44.1 µM
SW-620 colon
  TGI: 39.7 µM
MDA-MB-231 breast
  TGI: 36.8 µM
M14 melanoma
  TGI: 32.3 µM
SR leukemia
  TGI: > 100 µM
T-47D breast
  TGI: 52 µM
SF-539 CNS
  TGI: 36 µM
UACC-62 melanoma
  TGI: 34.1 µM

## CCN(CC)CCn1c(=O)c2c(C)c3oc4ccccc4oc3c(C)c2c1=O
HL-60(TB) leukemia
  TGI: > 100 µM
ACHN renal
  TGI: > 100 µM
MCF7 breast
  TGI: > 100 µM
SW-620 colon
  TGI: > 100 µM
MDA-MB-231 breast
  TGI: > 100 µM
M14 melanoma
  TGI: > 100 µM
SNB-75 CNS
  TGI: > 100 µM
RXF 393 renal
  TGI: > 100 µM
SF-539 CNS
  TGI: > 100 µM
HS 578T breast
  TGI: > 100 µM
UACC-62 melanoma
  TGI: > 100 µM

## COC(=O)C1=C(C(=O)OC)C(N(C)C)C(C(=O)OC)=C(C(=O)OC)S1
ACHN renal
  TGI: > 100 µM
MCF7 breast
  TGI: > 100 µM
SW-620 colon
  TGI: > 100 µM
MDA-MB-231 breast
  TGI: > 100 µM
M14 melanoma
  TGI: > 100 µM
SR leukemia
  TGI: > 100 µM
SNB-75 CNS
  TGI: > 100 µM
RXF 393 renal
  TGI: > 100 µM
T-47D breast
  TGI: > 100 µM
HS 578T breast
  TGI: > 100 µM
UACC-62 melanoma
  TGI: > 100 µM

## CCOC(=O)/C=C(\C(=O)OCC)n1cc(Cl)c(=O)n(CC(=O)OCC)c1=O
HL-60(TB) leukemia
  TGI: 7.39 µM
ACHN renal
  TGI: 3.02 µM
MCF7 breast
  TGI: 8.07 µM
SW-620 colon
  TGI: 4.54 µM
MDA-MB-231 breast
  TGI: 30.3 µM
M14 melanoma
  TGI: 10.2 µM
SNB-75 CNS
  TGI: 35.9 µM
RXF 393 renal
  TGI: 3.77 µM
T-47D breast
  TGI: 4.12 µM
SF-539 CNS
  TGI: 28.5 µM
HS 578T breast
  TGI: > 100 µM
UACC-62 melanoma
  TGI: 24.6 µM

## O=c1[nH]nc(Nc2ccccc2)c2nnn(C3CCCCC3)c12
HL-60(TB) leukemia
  TGI: > 100 µM
ACHN renal
  TGI: > 100 µM
MCF7 breast
  TGI: > 100 µM
MDA-MB-231 breast
  TGI: > 100 µM
M14 melanoma
  TGI: > 100 µM
SR leukemia
  TGI: > 100 µM

## Cc1ccc(S(=O)(=O)C2=c3nc4ccccc4cc3=C3C(=O)c4ccccc4C(=O)C32)cc1 (centres undefined)
HL-60(TB) leukemia
  TGI: > 100 µM
ACHN renal
  TGI: > 100 µM
SW-620 colon
  TGI: > 100 µM
M14 melanoma
  TGI: > 100 µM
SR leukemia
  TGI: > 100 µM
SNB-75 CNS
  TGI: > 100 µM
SF-539 CNS
  TGI: > 100 µM
UACC-62 melanoma
  TGI: > 100 µM

## OC12c3ccccc3C1CCCCCCCCCC21OCCO1 (centres undefined)
ACHN renal
  TGI: > 100 µM
SW-620 colon
  TGI: > 100 µM
M14 melanoma
  TGI: > 100 µM
SNB-75 CNS
  TGI: > 100 µM
RXF 393 renal
  TGI: > 100 µM
SF-539 CNS
  TGI: > 100 µM
UACC-62 melanoma
  TGI: > 100 µM

## N#Cc1cc(Sc2ccc(N)c(C#N)c2)ccc1N
HL-60(TB) leukemia
  TGI: 6.49 µM
ACHN renal
  TGI: > 100 µM
MCF7 breast
  TGI: > 100 µM
SW-620 colon
  TGI: > 100 µM
MDA-MB-231 breast
  TGI: > 100 µM
M14 melanoma
  TGI: 47.8 µM
RXF 393 renal
  TGI: > 100 µM
T-47D breast
  TGI: > 100 µM
SF-539 CNS
  TGI: 27.9 µM
HS 578T breast
  TGI: 39.3 µM
UACC-62 melanoma
  TGI: > 100 µM

## CCOC(=O)C(Cc1ccccc1)NC(=O)c1[nH]cnc1/N=N/N(C)C (centres undefined)
HL-60(TB) leukemia
  TGI: > 100 µM
ACHN renal
  TGI: > 100 µM
SW-620 colon
  TGI: > 100 µM
M14 melanoma
  TGI: > 100 µM
SR leukemia
  TGI: > 100 µM
SNB-75 CNS
  TGI: > 100 µM
SF-539 CNS
  TGI: > 100 µM
UACC-62 melanoma
  TGI: > 100 µM

## CCCCCCCCCCCCCCCCCCNC(=S)/N=C/c1c(O)c2ccccc2[nH]c1=O
HL-60(TB) leukemia
  TGI: 17.9 µM
ACHN renal
  TGI: 30.9 µM
MCF7 breast
  TGI: 48.3 µM
SW-620 colon
  TGI: 42.4 µM
MDA-MB-231 breast
  TGI: 30.3 µM
M14 melanoma
  TGI: 35.5 µM
SNB-75 CNS
  TGI: 28 µM
RXF 393 renal
  TGI: 53.5 µM
T-47D breast
  TGI: 90.5 µM
SF-539 CNS
  TGI: 43.1 µM

## C#CC1(O)CCC2[C@@H]3CCc4cc(Oc5nc(F)nc(-c6c7ccccc7c(SCC)n6CCC)n5)ccc4C3CC[C@@]21C (some centres undefined)
HL-60(TB) leukemia
  TGI: > 100 µM
ACHN renal
  TGI: > 100 µM
SW-620 colon
  TGI: > 100 µM
M14 melanoma
  TGI: > 100 µM
SR leukemia
  TGI: > 100 µM
RXF 393 renal
  TGI: 55.4 µM
SF-539 CNS
  TGI: > 100 µM
UACC-62 melanoma
  TGI: > 100 µM
